# Entries after “also recorded” stand apart in the source; their conditions may differ.
# Tests used:
# [1] = Animal case study: antibiotic treatment of a cat; assay type: in vivo; settings: domestic cat with a scratch to the eye; 30 days of treatment
# Procedure: A domestic cat was given a mixture of antibiotics as eye drops in response to a scratch to the eye. […] Previously the cat had never been given milk (as many animals are allergic to cow's milk). The cat was now given full cream milk as part of a regimen to promote weight gain (the cat also continued to eat its usual amount of daily cat food throughout the period of weight loss). Initially weight was gained but within 24 hours weight loss resumed (presumably because the pathogenic bacteria/viruses had found a way of utilising lactose). An autopsy indicated bone-cancer as cause of death. The body wasting caused by the weight loss was very similar to that observed in early AIDS cases. However the cat had been regularly vaccinated against HTLV 1 through its 16 year life (and had never been ill in that period).
# [2] = system: B. pumilus; assay: MIC determination against B. pumilus; assay type: cell-based, Bacillus pumilus; settings: as printed in table heads
# Procedure: (§1) However when the concentration of organisms was 5.1 x 10^6 cfu/ml which was the inoculum used in the microcalorimetric incubations the MIC was increased to 2 µg/ml; the effect was also bacteriostatic.
# [3] = system: Bacillus pumilus; assay: Flow microcalorimetry (p-t curves) of growing Bacillus pumilus; assay type: cell-based; settings: ZNB 20 ug/ml; pH 8.00
# Source text: (§2) • a) For B. pumilus a simple glucose/salts medium was employed with a glucose concentration of 0.1 % w/v. • b) For Bord. bronch. The above salts medium was used with the addition of nicotinic acid, methionine and glutamic acid. Glutamic acid was used at a concentration of 0.2% w/v. • c) For M. flavus a semidefined medium was employed, using the same salts as a B. pumilus but also Na-citrate, biotin and protease peptone. In the calorimeter a concentration of 0.4% protease peptone was used. All medium constituents (except protease) were analytical reagents. The calorimetric medium was therefore a final concentration of 100ml of either solution a, b or c freshly autoclaved for 15 mins exactly at 121°C, 151b/sq inch. Glucose was added to the appropriate solution after autoclaving.
# (§3) To the vertical face of the vessel close to its base, equidistantly spaced around the circumference, ports were fitted for an oxygen electrode and for sampling/inoculation. The fermenter was closed with a flat flanged glass lid which had five ports accommodating respectively, gas inlet tube, gas exhaust (via air condenser), inlet and outlet flow-lines to and from the calorimeter. The fermenter and lid was sealed with a p.t.f.e. gasket and clamped with a metal clip. The fermenter was placed on a magnetic stirring unit in a water jacket which allowed circulation of the thermostatically controlled water at 30°C or 37°C. The fermenter which contained a Teflon coated magnetic stirring bar, was sterilised by autoclaving.
# (§4) For a typical calorimetric incubation the medium was passed through the calorimetric vessel at the same flow rate and temperature as those used in the experiment to establish a steady baseline deflection. The following operations then took place to a strict timetable. The liquid nitrogen stored ampoule was thawed at 38°C for 3 min and then stirred for 20 sec on a whirlimixer. The bacterial suspension (0.5-1.5ml) volumes was inoculated into the medium (100ml) two minutes after completion of thawing. A Gilson automatic pipette was used for inoculation. The calorimeter inlet flow-line was placed in the incubation medium 30 seconds after inoculation. The flowing incubation medium reached the calorimetric vessel two min after inlet flow-line insertion. At this time the recording of the p-t curves was started. Eight min after inoculation the outflow from the calorimeter was returned to the fermenter (after the "baseline" medium had run to waste but before the inoculated medium ran to waste) thus making a closed system. Aeration was started as soon as the inlet tube was inserted in the fermenter. Microbiological purity of the culture was checked by plating out a sample of the culture at the end of each incubation on nutrient agar (lab M).
# (§5) The output of calorimetric experiments is a plot of power (energy evolution per unit of time) as a function of time. The unit of power (p) is the Watt (W) and the unit of time is the hour (h). In some experiments seconds (s) were used as time unit.
# as §1
# [4] = system: Micrococcus flavus; assay: MIC / MBC against Micrococcus flavus; assay type: cell-based
# [5] = system: Micrococcus flavus; assay: Flow microcalorimetry (p-t curves) of growing Micrococcus flavus; assay type: cell-based
# Source text: as §2, §3, §4, §5
# This point occurred at an increase in deflection of 29.5% from the baseline value.
# [6] = system: Bordetella Bronchiseptica; assay: MIC / MBC against Bordetella bronchiseptica; assay type: cell-based; settings: as printed in table heads
# [7] = system: Bordetella Bronchiseptica; assay: Flow microcalorimetry (p-t curves) of growing Bordetella bronchiseptica; assay type: cell-based
# Source text: as §2, §3, §4, §5
# After successful freezing of Bord. bronch p-t curves for growth in different concentrations of glutamic acid from 0.1%-0.5% were obtained. It was concluded that a medium containing 0.2% glutamic acid would be sufficient for a good deflection in the microcalorimeter minimising the possibility of the bacteria clogging in the microcalorimetric cell or in the teflon tubes leading to and from the microcalorimetric cell. A pH of 7 was used in all the following experiments as this is the optimum pH for polymyxin - lipid binding.
# It was of vital importance to maintain a constant oxygen tension; this was achieved by using saturation concentrations of oxygen. It was decided to use the height of the small peak as full scale deflection for the antibiotic assay as the increase in power was exponential up to this point and the peak occurred at a convenient time. This choice of assay point was empirical. The inoculum was 1.1 ± 0.06 x 10^8 cfu/ml for all the microclalorimetric incubations. […]
# [8] = system: E. coli; assay: MIC / MBC against E. coli; assay type: cell-based
# [9] = system: respiring E.coli; assay: Microcalorimetry of respiring E. coli in glucose buffer; assay type: cell-based; settings: for response on addition to respiring E.coli: highest concentration added 300µg/ml
# Procedure: E.coli was suspended in 10% DMSO prior to freezing and the viable counts were for batch 1: pre-freeze: 4.0 ± 0.6_ x 10^10 cfu/ml and post -freeze 2.0 ± 0.44 x 10^10 cfu/ml and for batch 2: pre-freeze: 3.45 ± 0.58 x 10^10 cfu/ml and post-freeze 2.93 ± 0.43 x 10^10 cfu/ml. The freezing rate for both batches was 20°C/min the survival rate was 50% for batch 1 and 85% for batch 2. These differences may have been due to batch 1 being kept for 24h at 4°C before being frozen.
# The respiration experiments were carried out in glucose buffer at different pH. The respiration curves obtained from batch 1 (inoculum 2 x 10^10 cfu/ml) and batch 2 Inoculum 3.2 x 10^10 cfu/ml) were essentially similar and a mean was used as a reference). The respiration experiments were carried out at pH 7 for polymyxin and Znbacitracin and at pH 8 for neomycin. No differences in p-t control curves could be observed at pH 7 or pH 8.
# The p-t curves rose and reached a plateau as has been observed for respiration of yeasts and some 20 min later fell to a lower plateau value. Prior incubation of the cells in the buffered glucose for periods up to 20 min before presentation to the calorimeter could reduce or entirely remove this effect.
# [10] = system: M. flavus; assay: Electron microscopy of M. flavus treated with Znbacitracin; assay type: cell-based, Micrococcus flavus; settings: even at 0.05 µg/ml (0.25 x MIC)
# Source text: No differences could be observed between fresh and frozen cells treated with antibiotic, which is as expected since no observable damage had occurred to the bacterial cells during freezing/thawing.
# [11] = system: E. coli; assay: Electron microscopy of E. coli treated with ZNB; assay type: cell-based; settings: response not lethal for the bacterium; listed as ZNB
# [12] = 0.02 ug/ml added at 50 % of p-t curve
# [13] = 0.6-1 ug/ml added at 0 % of p-t curve
molecule,measurement,setting,value
CN[C@H](CC(C)C)C(=O)N[C@H]1C(=O)N[C@@H](CC(N)=O)C(=O)N[C@H]2C(=O)N[C@H]3C(=O)N[C@H](C(=O)N[C@H](C(=O)O)c4cc(O)cc(O)c4-c4cc3ccc4O)[C@H](O)c3ccc(c(Cl)c3)Oc3cc2cc(c3O[C@@H]2O[C@H](CO)[C@@H](O)[C@H](O)[C@H]2O[C@H]2C[C@](C)(N)[C@H](O)[C@H](C)O2)Oc2ccc(cc2Cl)[C@H]1O [vancomycin],effect on the eye,[1],without any effect to the eye
Znbacitracin,MIC,[2],20 µg/mL
same,Observed effect on p-t curves,[3],No effect on p-t curve
same,MBC,[4]; as printed in table head,Ug/ml MIC & MBC 0.2 ug/ml
same,MIC,[4]; listed as ZNB,0.2 µg/mL
same,concentrations at which no further response could be recorded,[5],higher than 4 µg/ml
same,concentrations at which no variation in p-t curves could be observed,[5],lower than 0.02 µg/ml
same,Comments,[5]; [12],No inhibition observed
same,Observed effect on p-t curves,[5]; [12],Standard growth curve
same,appearance of p-t curves,[5]; 0.02-0.8 µg/ml (0.1 x MIC-4 x MIC),a power plateau immediately after addition of the antibiotic for varying periods of time and then an increase in power followed by a further small peak
same,Peak of growth curve later than standard curve,[5]; 0.1-1 ug/ml added at 50 % of p-t curve,Peak of growth curve occurs 60 min later than standard curve
same,Observed effect on p-t curves,"[5]; 0.1-1 ug/ml added at 50 % of p-t curve, CV 1.8%",Linear log dose response curve 2 hours after addition of antibiotic CV 1.8%
same,Comments,[5]; 0.2-0.3 ug/ml added at 0 % of p-t curve,Initial growth promoting effect - delayed peak after 9 hours
same,Observed effect on p-t curves,"[5]; 0.2-0.3 ug/ml added at 0 % of p-t curve, CV 2.3%, n=10","1.4 standard curve CV =2.3% , n=10"
same,Comments,[5]; [13],Bacteriocidal effect confirmed all bacteria are dead
same,Observed effect on p-t curves,[5]; [13],Total inhibition of growth
same,Observed effect on p-t curves,"[5]; 1-4 ug/ml added at 50 % of p-t curve, cv 1.4% n=10",Linear log dose response curve 20 min after addition of antibiotic cv = 1.4% n= 10
same,appearance of p-t curves,[5]; 5 x MIC - 20 x MIC,held at a plateau for a varying amount of time and then decreased towards a baseline value
same,largest dose that could be distinguished,[5]; added at 50 % of p-t curve,4 ug/ml largest dose that could be distinguished any higher dose s gave identical dose response curves
same,concentration with initial growth promoting effect,[5]; added at inoculum,0.2 to 0.3 µg/mL
same,MIC,[6],100 µg/mL
same,effect on growing cultures,[7]; ZNB added to growing cultures (Fig. 17),a small plateau was reached before growth reoccurred
same,Observed effect on p-t curves,"[7]; single antibiotic at its MIC (0.25ug/ml Neo; 100ug/ml ZNB), added at 50 % of p-t curve",Slightly delayed peak
same,MBC,[8]; as printed in table head,> 1000 µg/mL
same,MIC,[8]; as printed in table head,> 1000 µg/mL
same,MIC,[8]; text,> 1000 µg/mL
same,Comments,[9]; ZNB 300 ug/ml - 1000 ug/ml,Resistance demonstrated
same,Observed effect on p-t curves,"[9]; ZNB 300 ug/ml - 1000 ug/ml, pH 7",No response
same,response on addition to respiring E.coli,[9],No response could be observed
same,response on addition to respiring E.coli,[9]; listed as ZNB,no effect on power output
same,effect on the cell surface (electron micrographs),[10],Protrusions on the cell wall can be observed
same,effect on bacterial membrane (electron micrographs),[11],protrusions have been observed on the bacterial membrane; also recorded: did actually cause protrusions to occur on the bacterial membrane
